Measurements as given in US10988477B2 (Merck Patent GmbH, priority 2018, dated 2021).

Biological target: GCN2 kinase (Homo sapiens, UniProt Q9P2K8)
Experiment: GCN2 enzyme inhibition assay (Transcreener ADP2 fluorescence polarization)
Type: biochemical
Conditions: Enzyme activity for compounds of Formula IV; Ki(app), 280 μM ATP, 25° C.
How it was run: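 FP detection of ADP (antibody plus Alexa633 tracer) after a 1 h, 25 °C kinase reaction. Enzyme 4 nM, ATP 280 μM, (RS)7 peptide 200 μM, Tris pH 7.5 buffer with MgCl2 and DTT. Percent inhibition fitted by non-linear tight-binding algorithm for IC50 and Ki(app).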

GCN2 kinase, sequence (Q9P2K8 whole entry): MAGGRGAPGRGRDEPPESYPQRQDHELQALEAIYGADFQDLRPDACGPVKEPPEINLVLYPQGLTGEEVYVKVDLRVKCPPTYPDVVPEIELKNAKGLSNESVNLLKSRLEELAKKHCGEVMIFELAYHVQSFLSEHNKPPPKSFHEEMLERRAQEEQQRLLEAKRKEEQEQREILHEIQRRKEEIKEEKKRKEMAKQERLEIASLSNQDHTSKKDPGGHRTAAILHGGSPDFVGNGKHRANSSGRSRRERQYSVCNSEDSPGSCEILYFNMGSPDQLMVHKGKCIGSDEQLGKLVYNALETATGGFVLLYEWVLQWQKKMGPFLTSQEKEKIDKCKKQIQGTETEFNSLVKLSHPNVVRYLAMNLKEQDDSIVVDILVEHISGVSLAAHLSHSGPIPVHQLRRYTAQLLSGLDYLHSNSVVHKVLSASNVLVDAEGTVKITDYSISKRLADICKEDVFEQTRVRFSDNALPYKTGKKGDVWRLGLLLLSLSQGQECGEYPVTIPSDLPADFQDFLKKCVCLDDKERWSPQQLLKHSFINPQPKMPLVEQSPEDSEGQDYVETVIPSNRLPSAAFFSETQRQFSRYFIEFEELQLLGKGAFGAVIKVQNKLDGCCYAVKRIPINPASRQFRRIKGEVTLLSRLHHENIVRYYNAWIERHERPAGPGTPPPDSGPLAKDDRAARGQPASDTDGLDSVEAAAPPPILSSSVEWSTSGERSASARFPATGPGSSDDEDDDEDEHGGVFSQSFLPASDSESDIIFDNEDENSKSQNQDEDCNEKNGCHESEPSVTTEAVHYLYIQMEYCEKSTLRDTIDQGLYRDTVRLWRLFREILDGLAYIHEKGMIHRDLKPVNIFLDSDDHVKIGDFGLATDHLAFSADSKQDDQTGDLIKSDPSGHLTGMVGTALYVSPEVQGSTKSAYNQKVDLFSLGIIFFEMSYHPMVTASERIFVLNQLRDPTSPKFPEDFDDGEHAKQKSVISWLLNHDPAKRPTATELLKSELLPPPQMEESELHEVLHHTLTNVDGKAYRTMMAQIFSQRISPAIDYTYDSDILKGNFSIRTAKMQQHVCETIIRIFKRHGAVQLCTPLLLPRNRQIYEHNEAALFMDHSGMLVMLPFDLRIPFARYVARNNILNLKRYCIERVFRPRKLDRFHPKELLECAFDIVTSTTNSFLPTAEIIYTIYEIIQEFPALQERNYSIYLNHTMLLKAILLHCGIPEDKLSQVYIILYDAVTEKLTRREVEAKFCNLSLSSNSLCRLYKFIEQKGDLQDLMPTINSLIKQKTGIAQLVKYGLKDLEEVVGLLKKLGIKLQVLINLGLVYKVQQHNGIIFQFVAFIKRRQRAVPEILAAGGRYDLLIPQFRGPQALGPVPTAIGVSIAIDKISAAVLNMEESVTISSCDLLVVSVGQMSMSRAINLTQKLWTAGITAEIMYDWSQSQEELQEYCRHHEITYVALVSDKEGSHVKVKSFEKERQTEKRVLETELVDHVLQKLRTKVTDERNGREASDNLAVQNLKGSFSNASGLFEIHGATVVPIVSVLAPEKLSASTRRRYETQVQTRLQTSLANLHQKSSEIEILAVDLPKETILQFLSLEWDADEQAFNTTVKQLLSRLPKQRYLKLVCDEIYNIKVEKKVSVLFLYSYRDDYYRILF

Ki, < 10 nM:
C[C@H]1[C@@H](C(N)=O)CCCN1c1ccnc(-c2cnc3cnc(C(F)(F)F)cn23)n1 (racemic) [IV-453, Cis-2-Methyl-1-(2-(6-(trifluoromethyl)imidazo[1,2-a]pyrazin-3-yl)pyrimidin-4-yl)piperidine-3-carboxamide]

Ki, > 1000 nM:
O=C(N[C@H]1CCCN(c2ccnc(-c3cnc4cnc(C(F)(F)F)cn34)n2)C1)c1ccc(F)c(F)c1 [IV-746]
O=C(N[C@H]1CCCN(c2ccnc(-c3cnc4cnc(C(F)(F)F)cn34)n2)C1)c1ccoc1 [IV-748]

Ki, 10 to 100 nM:
C[C@H]1[C@H](c2cn[nH]c2)OCCN1c1ccnc(-c2cnc3cnc(Br)cn23)n1 (racemic) [IV-312, Trans-4-(2-(6-Bromoimidazo[1,2-a]pyrazin-3-yl)pyrimidin-4-yl)-3-methyl-2-(1H-pyrazol-4-yl)morpholine]
CC1C(c2cn[nH]c2)OCCN1c1ccnc(-c2cnc3cnc(C(F)(F)F)cn23)n1 (single isomer, unassigned) [IV-315, 3-Methyl-2-(1H-pyrazol-4-yl)-4-(2-(6-(trifluoromethyl)imidazo[1,2-a]pyrazin-3-yl)pyrimidin-4-yl)morpholine]
CC1CC(C(N)=O)CN(c2ccnc(-c3cnc4cnc(C(F)F)cn34)n2)C1 (mixture of isomers) [IV-107, 1-(2-(6-(Difluoromethyl)imidazo[1,2-a]pyrazin-3-yl)pyrimidin-4-yl)-5-methylpiperidine-3-carboxamide]
CC(=O)N1CCN(c2ccnc(-c3cnc4cnc(-c5cccc(O)c5)cn34)n2)CC1 [IV-309, 1-(4-(2-(6-(3-Hydroxyphenyl)imidazo[1,2-a]pyrazin-3-yl)pyrimidin-4-yl)piperazin-1-yl)ethan-1-one]
CC(C)(O)C1CCN(c2cccc(-c3cnc4cnc(C(N)=O)cn34)n2)CC1 [IV-226, 3-(6-(4-(2-Hydroxypropan-2-yl)piperidin-1-yl)pyridin-2-yl)imidazo[1,2-a]pyrazine-6-carboxamide]

Ki, 100 to 1000 nM:
O=c1nc(C2CCCN(c3ccnc(-c4cnc5cnc(C(F)(F)F)cn45)n3)C2)[nH][nH]1 (stereo not shown) [IV-660, 5-(1-(2-(6-(Trifluoromethyl)imidazo[1,2-a]pyrazin-3-yl)pyrimidin-4-yl)piperidin-3-yl)-1,2-dihydro-3H-1,2,4-triazol-3-one]
CC(C)(O)CN1CCN(c2ccnc(-c3cnc4cnc(C(F)(F)F)cn34)n2)CC1 [IV-619, 2-Methyl-1-(4-(2-(6-(trifluoromethyl)imidazo[1,2-a]pyrazin-3-yl)pyrimidin-4-yl)piperazin-1-yl)propan-2-ol]
CC1C(c2cn[nH]c2)NCCN1c1ccnc(-c2cnc3cnc(Cl)cn23)n1 (single isomer, unassigned) [IV-229, 6-Chloro-3-(4-(2-methyl-3-(1H-pyrazol-4-yl)piperazin-1-yl)pyrimidin-2-yl)imidazo[1,2-a]pyrazine]
FC(F)(F)c1cn2c(-c3nccc(N4CCC(Nc5cn[nH]c5)C4)n3)cnc2cn1 (stereo not shown) [IV-606, N-(1-(2-(6-(Trifluoromethyl)imidazo[1,2-a]pyrazin-3-yl)pyrimidin-4-yl)pyrrolidin-3-yl)-1H-pyrazol-4-amine]
FC(F)(F)c1cn2c(-c3nccc(N4CCC(N5CCOCC5)C4)n3)cnc2cn1 (stereo not shown) [IV-553, 4-(1-(2-(6-(Trifluoromethyl)imidazo[1,2-a]pyrazin-3-yl)pyrimidin-4-yl)pyrrolidin-3-yl)morpholine]
CC1CCN(c2ccnc(-c3cnc4cnc(C(F)(F)F)cn34)n2)CC1n1ccnc1 (stereo not shown) [IV-320, 3-(4-(3-(1H-Imidazol-1-yl)-4-methylpiperidin-1-yl)pyrimidin-2-yl)-6-(trifluoromethyl)imidazo[1,2-a]pyrazine]
FC(F)(F)c1cn2c(-c3nccc(N4CCCC(c5cc(C(F)(F)F)[nH]n5)C4)n3)cnc2cn1 (stereo not shown) [IV-653, 6-(Trifluoromethyl)-3-(4-(3-(5-(trifluoromethyl)-1H-pyrazol-3-yl)piperidin-1-yl)pyrimidin-2-yl)imidazo[1,2-a]pyrazine]
O=C1NCCN1C1CCCN(c2ccnc(-c3cnc4cnc(C(F)(F)F)cn34)n2)C1 (stereo not shown) [IV-584, 1-(1-(2-(6-(Trifluoromethyl)imidazo[1,2-a]pyrazin-3-yl)pyrimidin-4-yl)piperidin-3-yl)imidazolidin-2-one]
CC(=O)NC1CCCN(c2ccnc(-c3cnc4cnc(C(N)=O)cn34)n2)C1 (stereo not shown) [IV-249, 3-(4-(3-Acetamidopiperidin-1-yl)pyrimidin-2-yl)imidazo[1,2-a]pyrazine-6-carboxamide]
CC(=O)NC1CCCN(c2ccnc(-c3cnc4cnc(C(F)(F)F)cn34)n2)C1 (stereo not shown) [IV-530, N-(1-(2-(6-(Trifluoromethyl)imidazo[1,2-a]pyrazin-3-yl)pyrimidin-4-yl)piperidin-3-yl)acetamide]
CNS(=O)(=O)C1CCN(c2ccnc(-c3cnc4cnc(C(N)=O)cn34)n2)CC1 [IV-252, 3-(4-(4-(N-Methylsulfamoyl)piperidin-1-yl)pyrimidin-2-yl)imidazo[1,2-a]pyrazine-6-carboxamide]
FC(F)c1cn2c(-c3nccc(C4=CCCC4)n3)cnc2cn1 [IV-163, 3-(4-(Cyclopent-1-en-1-yl)pyrimidin-2-yl)-6-(difluoromethyl)imidazo[1,2-a]pyrazine]
Cn1nc(C2CCN(c3ccnc(-c4cnc5cnc(C(F)(F)F)cn45)n3)C2)cc1O (stereo not shown) [IV-647, 1-Methyl-3-(1-(2-(6-(trifluoromethyl)imidazo[1,2-a]pyrazin-3-yl)pyrimidin-4-yl)pyrrolidin-3-yl)-1H-pyrazol-5-ol]
CC1CCN(c2ccnc(-c3cnc4cnc(C(F)(F)F)cn34)n2)CC1 [IV-517, 3-(4-(4-Methylpiperidin-1-yl)pyrimidin-2-yl)-6-(trifluoromethyl)imidazo[1,2-a]pyrazine]
CC1CCC(C)N(c2ccnc(-c3cnc4cnc(C(N)=O)cn34)n2)C1 (stereo not shown) [IV-271, 3-(4-(2,5-Dimethylpiperidin-1-yl)pyrimidin-2-yl)imidazo[1,2-a]pyrazine-6-carboxamide]
FC(F)(F)c1cn2c(-c3nccc(N4CCOC(c5cccnc5)C4)n3)cnc2cn1 (stereo not shown) [IV-711]
CC1CN(c2nc(-c3cnc4cnc(C(F)(F)F)cn34)ncc2F)CC(c2cn[nH]c2)O1 (single isomer, unassigned) [IV-334, 4-(5-Fluoro-2-(6-(trifluoromethyl)imidazo[1,2-a]pyrazin-3-yl)pyrimidin-4-yl)-2-methyl-6-(1H-pyrazol-4-yl)morpholine]
OCC1CN(c2ccnc(-c3cnc4cnc(C(F)(F)F)cn34)n2)CCO1 (stereo not shown) [IV-446, (4-(2-(6-(Trifluoromethyl)imidazo[1,2-a]pyrazin-3-yl)pyrimidin-4-yl)morpholin-2-yl)methanol]
CC(=O)N1CCN(c2ccnc(-c3cnc4cnc(-c5cn(C)nc5C)cn34)n2)CC1 [IV-307, 1-(4-(2-(6-(1,3-Dimethyl-1H-pyrazol-4-yl)imidazo[1,2-a]pyrazin-3-yl)pyrimidin-4-yl)piperazin-1-yl)ethan-1-one]
FC(F)(F)c1cn2c(-c3nccc(N4CCCC5(CCOCC5)C4)n3)cnc2cn1 [IV-505, 2-(2-(6-(Trifluoromethyl)imidazo[1,2-a]pyrazin-3-yl)pyrimidin-4-yl)-9-oxa-2-azaspiro[5.5]undecane]
N#CC1CCN(c2ccnc(-c3cnc4cnc(C(F)(F)F)cn34)n2)CC1 [IV-513, 1-(2-(6-(Trifluoromethyl)imidazo[1,2-a]pyrazin-3-yl)pyrimidin-4-yl)piperidine-4-carbonitrile]

Same assay, conditions: compounds of Formula II; 280 μM ATP, 4 nM GCN2 kinase

Ki, < 10 nM:
CS(=O)(=O)NCC1CN(c2cc(-c3cnc4ccc(C(F)F)nn34)ncn2)C[C@@H]2C[C@H](F)CN12 (stereo partly drawn) [II-568, N-(((7S,8aS)-2-(6-(6-(Difluoromethyl)imidazo[1,2-b]pyridazin-3-yl)pyrimidin-4-yl)-7-fluorooctahydropyrrolo[1,2-a]pyrazin-4-yl)methyl)methanesulfonamide]

Ki, 10 to 1000 nM:
CS(=N)(=O)c1cccc(-c2cc(-c3cnc4ccc(C(F)F)nn34)ncn2)c1 (stereo not shown) [II-580, (3-(6-(6-(Difluoromethyl)imidazo[1,2-b]pyridazin-3-yl)pyrimidin-4-yl)phenyl)(imino)(methyl)-λ^6-sulfanone]
CS(C)(=O)=NCC1CCCN(c2cc(-c3cnc4ccc(C(F)F)nn34)ncn2)C1 (stereo not shown) [II-574, (((1-(6-(6-(Difluoromethyl)imidazo[1,2-b]pyridazin-3-yl)pyrimidin-4-yl)piperidin-3-yl)methyl)imino)dimethyl-λ^6-sulfanone]
Cc1noc([C@@H]2CN(c3cc(-c4cnc5ccc(C(F)F)nn45)ccn3)C[C@H](C)O2)n1 [II-748]
CCC(NS(C)(=O)=O)C1CN(c2cc(-c3cnc4ccc(C(F)F)nn34)ncn2)CCO1 (stereo not shown) [II-571, N-(1-(4-(6-(6-(Difluoromethyl)imidazo[1,2-b]pyridazin-3-yl)pyrimidin-4-yl)morpholin-2-yl)propyl)methanesulfonamide]
Cc1c(CNS(C)(=O)=O)cccc1-c1cc(-c2cnc3ccc(C(F)F)nn23)ncn1 [II-575, N-[[3-[6-[6-(Difluoromethyl)imidazo[1,2-b]pyridazin-3-yl]pyrimidin-4-yl]-2-methyl-phenyl]methyl]methanesulfonamide]
N#CCC1CN(c2cc(-c3cnc4ccc(C(F)F)nn34)ncn2)CCO1 (stereo not shown) [II-512, 2-(4-(6-(6-(Difluoromethyl)imidazo[1,2-b]pyridazin-3-yl)pyrimidin-4-yl)morpholin-2-yl)acetonitrile]

Same assay, conditions: compounds of Formula V; 280 μM ATP, 4 nM GCN2 kinase

Ki, 100 to 1000 nM:
CS(C)(=O)=NC1CCCN(c2ccnc(-c3cnc4sc(C(F)(F)F)cn34)n2)C1 (stereo not shown) [Compound V-9, Dimethyl((1-(2-(2-(trifluoromethyl)imidazo[2,1-b]thiazol-5-yl)pyrimidin-4-yl)piperidin-3-yl)imino)-λ^6-sulfanone]
